Where “and” joins values, the source holds several entries; their conditions need not be identical. Equal entries are not always repeated.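 Compound exposure: 48 hours, 5 concentrations, 96-well plates. GI50: concentration for 50% inhibition of growth. TGI marks complete inhibition of growth.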
Test system: MCF7 breast
Assay: growth of human tumour cells (NCI), 48 h

Row | Compound | TGI | GI50 [µM]
1 | CCNC(=S)N/N=C/c1cc([N+](=O)[O-])ccc1O | 4.4 µM | –
2 | Cc1cc(N(CCC#N)CCC#N)ccc1/C(N=Nc1ccc(Cl)cc1)=N\NC(=O)c1ccccc1 | > 100 µM | –
3 | CCc1ccc(CCN2CCCCC2)nc1 | > 100 µM | –
4 | O=C(NNC(=O)c1ccccc1SSc1ccccc1C(=O)NNC(=O)c1ccccc1S)c1ccccc1S | > 100 µM | –
5 | O=C1/C(=C/c2ccc(O)cc2)CC/C1=C\c1ccc(O)cc1 | > 100 µM | –
6 | CC(C)C1/C(=N/O)CC(c2ccccc2)N(N=O)C1c1ccccc1 (stereo not given) | > 100 µM | –
7 | COc1cc(/C=C2\S/C(=N/Nc3nc(-c4ccc(Br)cc4)cs3)NC2=O)cc(OC)c1OC | > 100 µM | –
8 | CCCNC1=C2CC(C)CC(OC)[C@@H](O)[C@H](C)/C=C(\C)C(OC(N)=O)C(OC)/C=C\C=C(/C)C(=O)NC(=CC1=O)C2=O (stereo not given in full) | 28.5 µM | 0.0525
9 | CCC1(O)CC2CC(=O)OC2C1O (stereo not given) | > 100 µM | –
10 | C(/c1ccco1)=c1/nc(-c2ccccc2)n2c1nc1ccccc12 | > 100 µM | –
11 | Oc1cccc2c(Cl)ccnc12 | > 100 µM | –
12 | Cc1cccc(/C=N/NC(=S)Nc2ccccc2)n1 | > 25.7 µM | –
13 | N#CC1=C(N)N(c2ccccc2)C(c2ccco2)C1(C#N)C#N (stereo not given) | 43.9 µM | –
14 | Cc1cc(=O)[nH]c(NN2C(Cl)C(=O)C2c2ccccc2O)n1 (stereo not given) | > 100 µM | –
15 | CC(C)c1ccc(/C=C2/C=C(c3ccc4ccccc4c3)OC2=O)cc1 | > 100 µM | –
16 | COc1ccc(/C=C2\CCC(C)C3=C2NC(=S)NC3c2ccc(OC)c(OC)c2)cc1OC (stereo not given) | > 31.6 µM | –

Row | Compound | TGI | GI50 [µM]
17 | COc1ccc(C(OCC2OC(n3cc(C)c(=O)[nH]c3=O)CC2n2cc(Cn3cc(I)c(=O)[nH]c3=O)nn2)(c2ccccc2)c2ccccc2)cc1 (stereo not given) | > 100 µM | –
18 | O=S1(=O)NC(=NCc2c[nH]c3ccccc23)N(c2ccccc2)c2ccncc21 | > 100 µM | –
19 | COc1ccc(CNc2nc(NCc3ccc(OC)c(OC)c3)nc(NC3CCCCC3)n2)cc1 | > 100 µM | –
20 | C=C(C1=CC(=O)C(C)(C)O1)[C@@H]1CC=C([C@@H]2CC[C@H]3[C@@]2(C)CC[C@H]2C(C)(C)C(=O)[C@H](O)C[C@]32C)[C@H](O)O1 | 1.61 µM | –
21 | CC1=CC2C(O1)C1C(=O)C=CC(=O)C1=CC2[N+](=O)[O-] (stereo not given) | 14.3 µM | –
22 | C=C(Br)C(C)(Cl)CCC(Br)C(C)(C)Cl (stereo not given) | > 100 µM | –
23 | Cc1c2cnccc2c(C)c2c1c1ccccc1n2CCCN | 1.19 µM and 0.277 µM | 0.0474
24 | O=C(CCC(=O)c1ccc(Cl)cc1)NO | > 100 µM | –
25 | COc1c(C)c(C/C=C(\C)CCCCO[Si](c2ccccc2)(c2ccccc2)C(C)(C)C)c(OC)c(OC)c1OC | > 46.4 µM | –
26 | CN1CCN([C@H]2C[C@H]3[C@@H]4CC=C5C[C@@H](O)CC[C@]5(C)[C@H]4CC[C@]3(C)C2=O)CC1 | > 100 µM | –
27 | C[C@@]12C[C@@H](c3ccccc3O1)N1CCCCSC1=N2 | > 100 µM | –
28 | CCOC(=O)Nn1c(C)nnc1-c1ccccc1 | > 100 µM | –
29 | Cc1cn(C2CC(n3cc(Cn4cc(I)c(=O)[nH]c4=O)nn3)C(CO)O2)c(=O)[nH]c1=O (stereo not given) | > 100 µM | –
30 | Cc1cc(O)c2c(=O)c3ccccc3[nH]c2c1 | > 100 µM | –
31 | N=c1n(C(=O)N2CCCC2)c2cc(Cl)ccc2n1C1=NCCN1 | > 100 µM | –

Test system: MDA-MB-435
Assay: growth of human tumour cells (NCI), 48 h

Row | Compound | TGI [µM] | GI50 [µM]
32 | CCNC(=S)N/N=C/c1cc([N+](=O)[O-])ccc1O | > 100 | –
33 | Cc1cc(N(CCC#N)CCC#N)ccc1/C(N=Nc1ccc(Cl)cc1)=N\NC(=O)c1ccccc1 | 76.8 | –
34 | CCc1ccc(CCN2CCCCC2)nc1 | > 100 | –
35 | O=C(NNC(=O)c1ccccc1SSc1ccccc1C(=O)NNC(=O)c1ccccc1S)c1ccccc1S | > 100 | –
36 | O=C1/C(=C/c2ccc(O)cc2)CC/C1=C\c1ccc(O)cc1 | > 100 | –
37 | CC(C)C1/C(=N/O)CC(c2ccccc2)N(N=O)C1c1ccccc1 (stereo not given) | 72.4 | –
38 | COc1cc(/C=C2\S/C(=N/Nc3nc(-c4ccc(Br)cc4)cs3)NC2=O)cc(OC)c1OC | 46.3 | –
39 | CCCNC1=C2CC(C)CC(OC)[C@@H](O)[C@H](C)/C=C(\C)C(OC(N)=O)C(OC)/C=C\C=C(/C)C(=O)NC(=CC1=O)C2=O (stereo not given in full) | 28.8 | 0.0903
40 | CCC1(O)CC2CC(=O)OC2C1O (stereo not given) | > 100 | –
41 | C(/c1ccco1)=c1/nc(-c2ccccc2)n2c1nc1ccccc12 | > 100 | –
42 | Oc1cccc2c(Cl)ccnc12 | > 78.5 | –
43 | Cc1cccc(/C=N/NC(=S)Nc2ccccc2)n1 | > 100 | –
44 | N#CC1=C(N)N(c2ccccc2)C(c2ccco2)C1(C#N)C#N (stereo not given) | 71.8 | –
45 | Cc1cc(=O)[nH]c(NN2C(Cl)C(=O)C2c2ccccc2O)n1 (stereo not given) | > 100 | –
46 | CC(C)c1ccc(/C=C2/C=C(c3ccc4ccccc4c3)OC2=O)cc1 | > 100 | –
47 | COc1ccc(/C=C2\CCC(C)C3=C2NC(=S)NC3c2ccc(OC)c(OC)c2)cc1OC (stereo not given) | > 31.6 | –

Row | Compound | TGI [µM] | GI50 [µM]
48 | COc1ccc(C(OCC2OC(n3cc(C)c(=O)[nH]c3=O)CC2n2cc(Cn3cc(I)c(=O)[nH]c3=O)nn2)(c2ccccc2)c2ccccc2)cc1 (stereo not given) | > 100 | –
49 | O=S1(=O)NC(=NCc2c[nH]c3ccccc23)N(c2ccccc2)c2ccncc21 | > 100 | –
50 | COc1ccc(CNc2nc(NCc3ccc(OC)c(OC)c3)nc(NC3CCCCC3)n2)cc1 | > 100 | –
51 | C=C(C1=CC(=O)C(C)(C)O1)[C@@H]1CC=C([C@@H]2CC[C@H]3[C@@]2(C)CC[C@H]2C(C)(C)C(=O)[C@H](O)C[C@]32C)[C@H](O)O1 | 8.04 | –
52 | CC1=CC2C(O1)C1C(=O)C=CC(=O)C1=CC2[N+](=O)[O-] (stereo not given) | 26.4 | –
53 | C=C(Br)C(C)(Cl)CCC(Br)C(C)(C)Cl (stereo not given) | 86.3 | –
54 | Cc1c2cnccc2c(C)c2c1c1ccccc1n2CCCN | 0.46 | –
55 | O=C(CCC(=O)c1ccc(Cl)cc1)NO | > 100 | –
56 | COc1c(C)c(C/C=C(\C)CCCCO[Si](c2ccccc2)(c2ccccc2)C(C)(C)C)c(OC)c(OC)c1OC | > 46.4 | –
57 | CN1CCN([C@H]2C[C@H]3[C@@H]4CC=C5C[C@@H](O)CC[C@]5(C)[C@H]4CC[C@]3(C)C2=O)CC1 | > 100 | –
58 | C[C@@]12C[C@@H](c3ccccc3O1)N1CCCCSC1=N2 | > 100 | –
59 | CCOC(=O)Nn1c(C)nnc1-c1ccccc1 | > 100 | –
60 | Cc1cn(C2CC(n3cc(Cn4cc(I)c(=O)[nH]c4=O)nn3)C(CO)O2)c(=O)[nH]c1=O (stereo not given) | > 100 | –
61 | Cc1cc(O)c2c(=O)c3ccccc3[nH]c2c1 | > 100 | –
62 | N=c1n(C(=O)N2CCCC2)c2cc(Cl)ccc2n1C1=NCCN1 | > 100 | –

Test system: MOLT-4 leukemia
Assay: growth of human tumour cells (NCI), 48 h

Row | Compound | TGI [µM] | GI50 [µM]
63 | CCNC(=S)N/N=C/c1cc([N+](=O)[O-])ccc1O | 63.7 | –
64 | Cc1cc(N(CCC#N)CCC#N)ccc1/C(N=Nc1ccc(Cl)cc1)=N\NC(=O)c1ccccc1 | > 100 | –
65 | CCc1ccc(CCN2CCCCC2)nc1 | > 100 | –
66 | O=C(NNC(=O)c1ccccc1SSc1ccccc1C(=O)NNC(=O)c1ccccc1S)c1ccccc1S | > 87 | –
67 | O=C1/C(=C/c2ccc(O)cc2)CC/C1=C\c1ccc(O)cc1 | > 52.8 | –
68 | CC(C)C1/C(=N/O)CC(c2ccccc2)N(N=O)C1c1ccccc1 (stereo not given) | 95.6 | –
69 | COc1cc(/C=C2\S/C(=N/Nc3nc(-c4ccc(Br)cc4)cs3)NC2=O)cc(OC)c1OC | 9.51 | –
70 | CCCNC1=C2CC(C)CC(OC)[C@@H](O)[C@H](C)/C=C(\C)C(OC(N)=O)C(OC)/C=C\C=C(/C)C(=O)NC(=CC1=O)C2=O (stereo not given in full) | 13.5 | 0.492
71 | CCC1(O)CC2CC(=O)OC2C1O (stereo not given) | > 100 | –
72 | C(/c1ccco1)=c1/nc(-c2ccccc2)n2c1nc1ccccc12 | 33.5 | –
73 | Oc1cccc2c(Cl)ccnc12 | 4.19 | –
74 | Cc1cccc(/C=N/NC(=S)Nc2ccccc2)n1 | > 100 | –
75 | N#CC1=C(N)N(c2ccccc2)C(c2ccco2)C1(C#N)C#N (stereo not given) | 71 | –
76 | Cc1cc(=O)[nH]c(NN2C(Cl)C(=O)C2c2ccccc2O)n1 (stereo not given) | > 100 | –
